{"source": "patent US20130316374A1", "about": "“BREAST CANCER DIAGNOSTICS” (IMBA - INSTITUT FUR MOLEKULARE BIOTECHNOLOGIE GMBH, priority 2010, published 2013)", "key": {"[1]": {"system": "NFκB pathway, CyclinD1", "experiment": "NFκB pathway activation and CyclinD1 expression in mammary epithelial cells after MPA", "assay_type": "in vivo, mouse", "conditions": "three day MPA treatment", "from_the_text": "a, Activation of the NFκB pathway and CyclinD1 expression by MPA. Nulliparous RANK^Δmam and littermate control females were s.c. implanted with slow-release MPA pellets or treated with sham surgery. a, In situ immunostaining to detect phosphorylated (P) IκBα in mammary epithelial cells of RANK^Δmam and littermate control females after 3d MPA treatment. b, Western blot analysis of CyclinD1 and RANKL in isolated mammary epithelial cells from RANK^Δmam and littermate control females after 3d MPA treatment. Recombinant, murine sRANKL protein is shown for molecular size comparison. β-actin is shown as a loading control.\nRANKL-RANK signaling via IKKα-NFκB-CyclinD1 in mammary epithelial cells is illustrated in FIG. 11a. […] To directly show whether RANK mediates NFκB-CyclinD1 activation downstream of progestins in vivo, mice were challenged with MPA. […] The Id2 pathway is a second genetically confirmed down-stream pathway for RANKL/RANK in mammary epithelial cells^17. To extend these findings to human, human SKBR3 breast tumor cells were assayed. […] To further test the effects of RANKL stimulation the ability of these cells to grow in an anchorage-independent manner was assessed, which correlates well with tumorigenicity in vivo^18."}, "[2]": {"system": "mammary epithelial cells", "experiment": "Epithelial proliferation in mammary glands, in situ Ki67 immunostaining", "assay_type": "in vivo, mouse", "method": "(§1) a, Epithelial proliferation in mammary glands of control littermates and RANK^Δmam females 3 days after sham treatment and MPA implantation. Proliferation was determined by in situ Ki67 immunostaining. b,c, Marked increase of the stem cell-enriched CD24^+CD49^high population (MaSC) in MPA-treated mammary glands in control but not in RANK^Δmam mammary glands. b, Representative FACS profiles showing CD24 and CD49 expression of lineage negative (CD31^− (endothelial cells) CD45^− (hematopoietic cells) […] (erythroid cells)) of mammary MaSCs from MPA- or sham-treated 8-week old virgin females. c, Quantification of MaSC-enriched CD24^+CD49^high population from mammary glands of MPA- or sham-treated virgin RANK^Δmam and littermate control females. For all MaSCs experiments mice were treated with MPA for 3 days. n=4 per group+/−sem. *P<0.05; ***P<0.001 (Student's t-test).\nAt least 1000 mammary gland epithelial cells were counted per mouse. n=3 mice per genotype. **P<0.005; ***P<0.001 (Student's t-test). b, Quantification of in situ Ki67 immunostained cells per acinus from mammary glands of control littermate and RANK^Δmam females on day 3 after MPA s.c. implantation. […] At least 1000 cells were counted per mammary gland. n=3 per genotype. In b, and c, data are shown as percentage of acini/ducts with low (<20% of epithelial cells are Ki67^+), medium (20-80% of epithelial cells are Ki67^+) and high (>80% of epithelial cells are Ki67^+) numbers of proliferating cells+/−sem. ***P<0.001; *P<0.03 (Student's t-test). d, Epithelial proliferation in mammary glands of control littermates and RANK^Δmam females 1 day after i.p. injection of PBS or RANKL (1 μg). Proliferation was determined in situ Ki67 immunostaining. Magnifications ×40. e, Quantification of epithelial proliferation 1 day after i.p. injection of PBS or RANKL (1 μg). Mean percentages of Ki67 positive cells+/−sem are shown. *P<0.03; n=5 (Student's t-test).\nFor histological analysis, 5 μm sections were cut and stained with hematoxylin and eosin (H&E). Whole-mount staining of mammary glands was performed as described. For immunoperoxidase staining paraffin-embedded sections were […] and antigenic epitopes exposed using a 10 mM citrate buffer or microwaving. Sections were incubated with antibodies to cytokeratine 5, cytokeratine 14, E-cadherin, anti-Ki67 (Novocastra) and anti-active Caspase 3 (Cell Signaling) and visualized using peroxidase-conjugated secondary antibodies. Histomorphometric indices (proliferation and apoptosis) were calculated as the number of positive epithelial cells divided by the total number of epithelial cells, with no fewer than 1000 nuclei for Ki67 stainings and no fewer than 5000 cells for active Caspase 3 staining counted per section.\n(§2) Recently it has been reported that endogenous progesterone affects the numbers of Lin-CD24+CD49f^hi stem cells during pregnancy^15 and the estrous cycle^16. In both studies, the RANKL/RANK system was implicated based on in vivo whole body Ab blocking studies and RT-PCR expression, however, it was not known whether this is a direct effect of RANKL-RANK in mammary epithelial cells rather than a secondary effect. Therefore it was assayed whether progestins such as MPA can also expand Lin-CD24+CD49f^hi cells."}, "[3]": {"system": "Lin-CD24+CD49f^hi cells", "experiment": "FACS quantification of MaSC-enriched CD24+CD49high population from mammary glands", "assay_type": "in vivo, mouse", "conditions": "MPA for 3 days", "method": "as §1, §2"}, "[4]": {"system": "human SKBR3 breast cancer cells", "experiment": "Soft-Agar Colony Formation Assay", "assay_type": "cell-based", "conditions": "RANKL (1 μg/ml), 18 days in culture", "method": "a, Western blotting for phosphorylated (P) IKKα, total IKKα, phosphorylated (P) p65 NFκB, total p65 NFκB, phosphorylated (P) IκBα, and total IκBα in isolated primary mouse mammary gland epithelial cells (MECs) in response to RANKL stimulation (1 μg/ml). […] is shown as loading control. b, Western blotting for IKKα, IKKβ, IKKγ, phosphorylated (P) p65 NFκB, total p65 NFκB, phosphorylated (P) IκBα, and total IκBα in pooled late stage mammary adenocarconimas (n=4 for each lane) that developed in control, RANK^Δmam, and IKKα^Δmam females. β-actin is shown as loading control c, Expression of RANK, CyclinD1, and p21 mRNA in late stage mammary adenocacinomas that developed in control, RANK^Δmam, and IKKα^Δmam females. Expression was determined by qRT-PCR. Data are mean values+/−sem. n=4 per group. d, Soft-Agar Colony Formation Assay. Growth of human SKBR3 breast cancer cells in soft agar in response to stimulation with RANKL (1 μg/ml) or EGF (100 ng/ml). […] Apoptosis was detected by immunostaining for active Caspase 3. f, Apoptotic nuclei of epithelial cells (arrows) are shown for representative mammary gland sections. Magnifications ×40. g, Quantification of mammary epithelial apoptosis. A minimum of 5000 nuclei was counted for each mouse. […]"}}, "note": "“Also recorded” adds a separate entry of the source.", "data": [{"molecule": "CC(=O)O[C@]1(C(C)=O)CC[C@H]2[C@@H]3C[C@H](C)C4=CC(=O)CC[C@]4(C)[C@H]3CC[C@@]21C", "note": "[MPA, medroxyprogesterone acetate]", "values": [{"measurement": "nuclear phosphorylated IκBα and CyclinD1 protein expression", "setting": "[1]; RANK^Δmam female", "result": "severely reduced"}, {"measurement": "CyclinD1 protein expression in mammary epithelial cells", "setting": "[1]; control females", "result": "induction of CyclinD1 protein expression"}, {"measurement": "nuclear phosphorylated IκBα in mammary epithelial cells", "setting": "[1]; control females", "result": "nuclear accumulation of phosphorylated IκBα"}, {"measurement": "MPA-induced proliferation of mammary epithelial cells", "setting": "[2]; RANK^Δmam females", "result": "significantly reduced"}, {"measurement": "acini with very low proliferation rates (Ki67)", "setting": "[2]; RANK^Δmam females, day 3 after MPA s.c. implantation", "result": "more than 60%"}, {"measurement": "acini with signs of medium to high proliferation (Ki67)", "setting": "[2]; control females, day 3 after MPA s.c. implantation", "result": "~80", "unit": "%"}, {"measurement": "proliferation of mammary epithelial cells", "setting": "[2]; wild type population, MPA treatment", "result": "triggers massive proliferation of mammary epithelial cells"}, {"measurement": "expansion of Lin-CD24+CD49f^hi cells", "setting": "[3]; RANK^Δmam females", "result": "did not occur"}, {"measurement": "expansion of Lin-CD24+CD49f^hi cells", "setting": "[3]; control females", "result": "two-fold expansion"}]}, {"molecule": "RANKL: Receptor Activator of NF-κB Ligand; recombinant murine RANKL used for stimulation (protein, UniProt O35235 139-316, looked up) Tumor necrosis factor ligand …: FSGAPAMMEGSWLDVAQRGKPEAQPFAHLTINAASIPSGSHKVTLSSWYHDRGWAKISNMTLSNGKLRVNQDGFYYLYANICFRHHETSGSVPTDYLQLMVYVVKTSIKIPSSHNLMKGGSTKNWSGNSEFHFYSINVGGFFKLRAGEEISIQVSNPSLLDPDQDATYFGAFKVQDID", "values": [{"measurement": "proliferation of mammary gland epithelial cells", "setting": "[2]; nulliparous females, 1 day after i.p. injection of RANKL (1 μg)", "result": "triggered proliferation of mammary gland epithelial cells"}, {"measurement": "anchorage-independent growth in soft agar", "setting": "[4]", "result": "induced growth of SKBR3 cells in soft agar; also recorded: macroscopic colonies formed"}]}]}
